Assay results: ChEMBL document CHEMBL5579829, “Discovery of a potent CDKs/FLT3 PROTAC with enhanced differentiation and proliferation inhibition for AML” (Eur J Med Chem, 2024)

Key:
[1] = biological target: T1, Protein cereblon/Cyclin-dependent kinase 2 (Homo sapiens, UniProt P24941+Q96SW2); assay: Protac activity at CRBN/CDK2 in human HL-60 cells assessed as induction of CDK2 degradation by Western blot analysis; format: cell-based
[2] = biological target: Protein cereblon/Cyclin-dependent kinase 9 (Homo sapiens, UniProt P50750+Q96SW2); assay: Protac activity at CRBN/CDK9 in human OVCAR-8 cells assessed as induction of CDK9 degradation measured after 6 hrs by Western blot analysis; format: cell-based
Chain of Protein cereblon/Cyclin-dependent kinase 9 (P50750 whole entry): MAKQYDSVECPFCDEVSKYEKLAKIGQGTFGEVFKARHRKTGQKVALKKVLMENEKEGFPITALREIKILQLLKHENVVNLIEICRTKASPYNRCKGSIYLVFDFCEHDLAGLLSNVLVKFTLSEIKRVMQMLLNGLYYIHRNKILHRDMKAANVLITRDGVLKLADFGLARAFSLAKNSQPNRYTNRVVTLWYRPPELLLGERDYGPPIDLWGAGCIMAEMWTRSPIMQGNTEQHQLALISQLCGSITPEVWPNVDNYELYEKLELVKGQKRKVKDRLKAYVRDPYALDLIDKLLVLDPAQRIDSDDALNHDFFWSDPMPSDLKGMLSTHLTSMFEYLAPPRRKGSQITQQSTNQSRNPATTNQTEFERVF
Chain of Protein cereblon/Cyclin-dependent kinase 9 (Q96SW2 whole entry): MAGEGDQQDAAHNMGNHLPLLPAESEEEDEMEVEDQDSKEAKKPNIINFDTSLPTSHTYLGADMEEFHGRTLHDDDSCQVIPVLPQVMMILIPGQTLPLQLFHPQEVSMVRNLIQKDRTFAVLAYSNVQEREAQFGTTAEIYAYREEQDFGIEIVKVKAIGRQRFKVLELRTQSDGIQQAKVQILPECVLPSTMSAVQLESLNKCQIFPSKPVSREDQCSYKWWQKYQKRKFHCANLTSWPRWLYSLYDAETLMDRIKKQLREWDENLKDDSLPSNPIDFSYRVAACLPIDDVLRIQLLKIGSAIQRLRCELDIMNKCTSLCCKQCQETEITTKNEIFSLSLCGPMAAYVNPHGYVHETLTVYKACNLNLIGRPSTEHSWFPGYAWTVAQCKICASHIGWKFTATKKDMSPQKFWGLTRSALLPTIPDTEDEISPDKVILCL

[3] = biological target: T1, Protein cereblon/Cyclin-dependent kinase 2; assay: Protac activity at CRBN/CDK2 in human OVCAR-8 cells assessed as induction of CDK2 degradation measured after 6 hrs by Western blot analysis; format: cell-based
[4] = biological target: T1, Protein cereblon/Cyclin-dependent kinase 2; assay: Protac activity at CRBN/CDK2 in human HL-60 cells assessed as induction of CDK2 degradation by Western blot analysis relative to control; format: cell-based
HL-60 [5] = assay: Antiproliferative activity against human HL-60 cells measured after 1 to 3 days by CCK-8 assay; format: functional, cell-based
[6] = biological target: von Hippel-Lindau disease tumor suppressor/Receptor-type tyrosine-protein kinase FLT3 (Homo sapiens, UniProt P36888+P40337); assay: Protac activity at VHL/FLT3-ITD (unknown origin) assessed as induction of FLT3 degradation
Chain of von Hippel-Lindau disease tumor suppressor/Receptor-type tyrosine-protein kinase FLT3 (P36888 whole entry, looked up, change not shown): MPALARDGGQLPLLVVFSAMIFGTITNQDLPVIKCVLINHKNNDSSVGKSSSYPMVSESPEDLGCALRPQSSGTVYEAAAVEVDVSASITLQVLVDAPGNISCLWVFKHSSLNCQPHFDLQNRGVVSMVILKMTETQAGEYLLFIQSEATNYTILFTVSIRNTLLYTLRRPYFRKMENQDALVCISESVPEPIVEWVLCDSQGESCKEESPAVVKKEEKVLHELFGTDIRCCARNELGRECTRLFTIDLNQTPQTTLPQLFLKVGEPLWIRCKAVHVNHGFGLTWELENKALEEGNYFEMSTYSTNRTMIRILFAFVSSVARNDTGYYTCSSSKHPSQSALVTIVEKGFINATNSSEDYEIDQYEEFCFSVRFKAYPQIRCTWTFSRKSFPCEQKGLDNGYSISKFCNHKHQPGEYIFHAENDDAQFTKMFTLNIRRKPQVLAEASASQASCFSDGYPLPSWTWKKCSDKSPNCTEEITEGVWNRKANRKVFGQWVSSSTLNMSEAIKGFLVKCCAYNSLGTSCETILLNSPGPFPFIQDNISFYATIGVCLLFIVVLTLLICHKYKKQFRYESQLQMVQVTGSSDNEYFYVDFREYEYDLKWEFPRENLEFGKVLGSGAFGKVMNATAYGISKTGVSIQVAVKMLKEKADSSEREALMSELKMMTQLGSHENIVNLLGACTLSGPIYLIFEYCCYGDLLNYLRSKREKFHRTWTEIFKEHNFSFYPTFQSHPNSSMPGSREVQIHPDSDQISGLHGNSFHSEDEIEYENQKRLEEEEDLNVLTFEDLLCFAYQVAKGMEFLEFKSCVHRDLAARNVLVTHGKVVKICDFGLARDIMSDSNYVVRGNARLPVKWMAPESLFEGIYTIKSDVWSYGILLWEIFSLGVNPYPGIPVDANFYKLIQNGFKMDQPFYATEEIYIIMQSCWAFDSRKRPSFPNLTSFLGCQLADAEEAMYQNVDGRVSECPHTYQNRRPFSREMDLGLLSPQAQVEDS
Chain of von Hippel-Lindau disease tumor suppressor/Receptor-type tyrosine-protein kinase FLT3 (P40337 whole entry, looked up, change not shown): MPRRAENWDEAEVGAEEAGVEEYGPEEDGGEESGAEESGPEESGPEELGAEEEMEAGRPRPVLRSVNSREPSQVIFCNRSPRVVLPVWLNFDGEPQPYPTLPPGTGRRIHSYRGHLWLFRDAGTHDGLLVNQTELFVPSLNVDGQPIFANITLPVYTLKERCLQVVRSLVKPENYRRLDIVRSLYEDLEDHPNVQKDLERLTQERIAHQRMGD

[7] = biological target: Protein cereblon/Cyclin-dependent kinase 4 (Homo sapiens, UniProt P11802+Q96SW2); assay: Protac activity at CRBN/CDK4 in human MDA-MB-231 cells assessed as induction of CDK4 degradation measured after 18 hrs by Western blot analysis; format: cell-based
Chain of Protein cereblon/Cyclin-dependent kinase 4 (P11802 whole entry): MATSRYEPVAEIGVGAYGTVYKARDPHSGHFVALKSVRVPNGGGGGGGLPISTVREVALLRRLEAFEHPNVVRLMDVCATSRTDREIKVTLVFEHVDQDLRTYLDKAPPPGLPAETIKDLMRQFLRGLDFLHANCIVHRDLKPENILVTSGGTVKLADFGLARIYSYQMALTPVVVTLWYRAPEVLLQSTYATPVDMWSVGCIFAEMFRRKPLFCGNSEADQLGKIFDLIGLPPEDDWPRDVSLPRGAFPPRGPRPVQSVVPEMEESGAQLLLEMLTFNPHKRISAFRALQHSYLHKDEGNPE
Chain of Protein cereblon/Cyclin-dependent kinase 4 (Q96SW2 whole entry): as the sequence (Q96SW2 whole entry) above

[8] = biological target: Protein cereblon/Cyclin-dependent kinase 6 (Homo sapiens, UniProt Q00534+Q96SW2); assay: Protac activity at CRBN/CDK6 in human MDA-MB-231 cells assessed as induction of CDK6 degradation measured after 18 hrs by Western blot analysis; format: cell-based
Chain of Protein cereblon/Cyclin-dependent kinase 6 (Q00534 whole entry): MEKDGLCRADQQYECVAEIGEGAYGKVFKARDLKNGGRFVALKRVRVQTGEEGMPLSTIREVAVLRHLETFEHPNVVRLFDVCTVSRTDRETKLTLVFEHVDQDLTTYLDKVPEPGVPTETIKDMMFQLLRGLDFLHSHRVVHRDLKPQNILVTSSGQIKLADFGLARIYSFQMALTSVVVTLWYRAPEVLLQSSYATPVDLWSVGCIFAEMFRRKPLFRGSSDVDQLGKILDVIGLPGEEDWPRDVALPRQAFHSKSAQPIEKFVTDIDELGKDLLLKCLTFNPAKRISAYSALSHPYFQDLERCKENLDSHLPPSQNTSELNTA
Chain of Protein cereblon/Cyclin-dependent kinase 6 (Q96SW2 whole entry): as the sequence (Q96SW2 whole entry) above

HL-60 [9] = assay: Induction of pro-differentiation of human HL-60 cells assessed as CD11b expression at 500 nM measured after 3 days by immunostaining-based flow cytometry (reference value: 8.32 to 10.55%); format: functional; conditions: time 3 day
HL-60 [10] = assay: Induction of pro-differentiation of human HL-60 cells assessed as CD11b expression at 500 nM measured after 5 days by immunostaining-based flow cytometry (reference value: 10.08 to 10.33%); format: functional; conditions: time 5 day
[11] = biological target: T1, Protein cereblon/Cyclin-dependent kinase 2; assay: Protac activity at CRBN/CDK2 in human Kasumi 1 cells assessed as induction of CDK2 degradation measured after 48 hrs by Western blot analysis; format: cell-based

For `O=C1CCC(N2C(=O)c3ccc(N4CCC(CN5CCC(N6CCC(NC(=O)c7n[nH]cc7NC(=O)c7c(Cl)cccc7Cl)CC6)CC5)CC4)cc3C2=O)C(=O)N1` (stereo not drawn), the DC50 [1] was greater than 100 nM.
`O=C(CCC(=O)N1CCN(Cc2ccc(NC(=O)c3n[nH]cc3Nc3ncnc4[nH]ccc34)cc2)CC1)NCCNc1cccc2c1C(=O)N(C1CCC(=O)NC1=O)C2=O` (stereo not drawn) gave a DC50 [2] of 33 nM and a DC50 [3] of 62 nM.
Compound `O=C1CCC(N2C(=O)c3ccc(N4CCC(C(=O)N5CCC(NC(=O)c6n[nH]cc6NC(=O)c6c(Cl)cccc6Cl)CC5)CC4)cc3C2=O)C(=O)N1` (stereo not drawn) has an Emax [4] of 59.3% and a DC50 [1] of 93.3 nM.
Compound `O=C1CCC(N2C(=O)c3ccc(N4CCC(CN5CCC(N6CCC(NC(=O)c7n[nH]cc7NC(=O)c7c(Cl)cccc7Cl)CC6)CC5)C4)cc3C2=O)C(=O)N1` (stereo not drawn) has an Emax [4] of 28.9% and a DC50 [1] greater than 100 nM.
`O=C1CCC(N2C(=O)c3ccc(N4CC(CN5CCC(N6CCC(NC(=O)c7n[nH]cc7NC(=O)c7c(Cl)cccc7Cl)CC6)CC5)C4)cc3C2=O)C(=O)N1` (stereo not drawn) showed an Emax [4] of 43.3% and a DC50 [1] greater than 100 nM.
`O=C1CCC(N2C(=O)c3ccc(N4CCC(C(=O)N5CCC(N6CCC(NC(=O)c7n[nH]cc7NC(=O)c7c(Cl)cccc7Cl)CC6)CC5)CC4)cc3C2=O)C(=O)N1` (stereo not drawn) showed a DC50 [1] greater than 100 nM.
Work on `O=C1CCC(N2C(=O)c3ccc(N4CC(CN5CCC(CN6CCC(NC(=O)c7n[nH]cc7NC(=O)c7c(Cl)cccc7Cl)CC6)CC5)C4)cc3C2=O)C(=O)N1` (stereo not drawn) yielded an Emax [4] of 9.07% and a DC50 [1] greater than 100 nM.
`O=C1CCC(N2C(=O)c3ccc(N4CCC(N5CCC(NC(=O)c6n[nH]cc6NC(=O)c6c(Cl)cccc6Cl)CC5)CC4)cc3C2=O)C(=O)N1` (stereo not drawn) gave an Emax [4] of 79.2%, a DC50 [1] of 2.8 nM and an IC50 (HL-60 [5]) of 24.4 nM.
In the case of `O=C1CCC(N2C(=O)c3ccc(N4CC(CN5CCC(NC(=O)c6n[nH]cc6NC(=O)c6c(Cl)cccc6Cl)CC5)C4)cc3C2=O)C(=O)N1` (stereo not drawn), the Emax [4] is reported as 63.2%, the DC50 [1] is reported as 13 nM and the IC50 (HL-60 [5]) is reported as 20.4 nM.
With `CCc1nc(C(N)=O)c(Nc2ccc(N3CCN(CCC4CCN(CC(=O)N[C@H](C(=O)N5C[C@H](O)C[C@H]5C(=O)N[C@@H](C)c5ccc(-c6scnc6C)cc5)C(C)(C)C)CC4)CC3)c(OC)c2)nc1NC1CCOCC1` the DC50 [6] was 7.62 nM.
`O=C1CCC(N2C(=O)c3ccc(N4CCC(N5CCC(NC(=O)c6n[nH]cc6NC(=O)c6c(Cl)cccc6Cl)CC5)C4)cc3C2=O)C(=O)N1` (stereo not drawn) gave an Emax [4] of 59.1%, a DC50 [1] of 7.13 nM and an IC50 (HL-60 [5]) of 14 nM.
With `O=C1CCC(N2C(=O)c3ccc(N4CCC(CN5CCC(CN6CCC(NC(=O)c7n[nH]cc7NC(=O)c7c(Cl)cccc7Cl)CC6)CC5)CC4)cc3C2=O)C(=O)N1` (stereo not drawn) the Emax [4] was 31.8% and the DC50 [1] was greater than 100 nM.
For `O=C1CCC(N2C(=O)c3ccc(N4CCC(CN5CCC(NC(=O)c6n[nH]cc6NC(=O)c6c(Cl)cccc6Cl)CC5)CC4)cc3C2=O)C(=O)N1` (stereo not drawn), the Emax [4] was 75.8%, the DC50 [1] was 1.17 nM and the IC50 (HL-60 [5]) was 44.6 nM.
Compound `O=C1CCC(N2C(=O)c3ccc(N4CCC(C(=O)N5CCN(Cc6ccc(NC(=O)c7n[nH]cc7Nc7ncnc8[nH]ccc78)cc6)CC5)CC4)cc3C2=O)C(=O)N1` (stereo not drawn) has an Emax [4] of 47.9% and a DC50 [1] greater than 100 nM.
`O=C1CCC(N2C(=O)c3ccc(N4CCC(CN5CCC(NC(=O)c6n[nH]cc6NC(=O)c6c(Cl)cccc6Cl)CC5)C4)cc3C2=O)C(=O)N1` (stereo not drawn) gave an Emax [4] of 67.3%, a DC50 [1] of 4.71 nM and an IC50 (HL-60 [5]) of 40.8 nM.
For `O=C1CCC(N2C(=O)c3ccc(N4CC(C(=O)N5CCC(N6CCC(NC(=O)c7n[nH]cc7NC(=O)c7c(Cl)cccc7Cl)CC6)CC5)C4)cc3C2=O)C(=O)N1` (stereo not drawn), the DC50 [1] was greater than 100 nM.
`CN1CCN(Cc2ccc(NC(=O)c3n[nH]cc3Nc3ncnc4[nH]ccc34)cc2)CC1` gave an IC50 (HL-60 [5]) of 89.3 nM.
Work on `O=C1CCC(N2C(=O)c3ccc(N4CCC(CN5CCN(Cc6ccc(NC(=O)c7n[nH]cc7Nc7ncnc8[nH]ccc78)cc6)CC5)C4)cc3C2=O)C(=O)N1` (stereo not drawn) yielded an Emax [4] of 76.1%, a DC50 [1] of 1.63 nM and an IC50 (HL-60 [5]) of 11.7 nM.
`O=C1CCC(N2C(=O)c3ccc(N4CCC(CN5CCC(CN6CCC(NC(=O)c7n[nH]cc7NC(=O)c7c(Cl)cccc7Cl)CC6)CC5)C4)cc3C2=O)C(=O)N1` (stereo not drawn) showed a DC50 [1] greater than 100 nM.
`O=C1CCC(N2C(=O)c3ccc(N4CCC(CCN5CCC(NC(=O)c6n[nH]cc6NC(=O)c6c(Cl)cccc6Cl)CC5)CC4)cc3C2=O)C(=O)N1` (stereo not drawn) gave an Emax [4] of 54.9%, a DC50 [1] of 26.5 nM and an IC50 (HL-60 [5]) of 24.1 nM.
In the case of `CC(=O)c1c(C)c2cnc(Nc3ccc(N4CCN(Cc5cn(CCCCCC(=O)Nc6cccc7c6C(=O)N(C6CCC(=O)NC6=O)C7=O)nn5)CC4)cn3)nc2n(C2CCCC2)c1=O` (stereo not drawn), the DC50 [7] is reported as 12.9 nM and the DC50 [8] is reported as 34.1 nM.
Work on `O=C1CCC(N2C(=O)c3ccc(N4CC(CN5CCC(CCN6CCC(NC(=O)c7n[nH]cc7NC(=O)c7c(Cl)cccc7Cl)CC6)CC5)C4)cc3C2=O)C(=O)N1` (stereo not drawn) yielded an Emax [4] of 65.8%, a DC50 [1] of 11.2 nM and an IC50 (HL-60 [5]) of 11.5 nM.
`O=C1CCC(N2C(=O)c3ccc(N4CC(CN5CCN(Cc6ccc(NC(=O)c7n[nH]cc7Nc7ncnc8[nH]ccc78)cc6)CC5)C4)cc3C2=O)C(=O)N1` (stereo not drawn) was tested, and the Emax [4] was 58.8%, the DC50 [1] was 1.23 nM and the IC50 (HL-60 [5]) was 13.4 nM.
In the case of `O=C1CCC(N2C(=O)c3ccc(N4CCC(CN5CCC(CCN6CCC(NC(=O)c7n[nH]cc7NC(=O)c7c(Cl)cccc7Cl)CC6)CC5)C4)cc3C2=O)C(=O)N1` (stereo not drawn), the Emax [4] is reported as 38.9% and the DC50 [1] is reported as greater than 100 nM.
Compound `Cc1ccsc1C(=O)n1nc(Nc2ccc(S(=O)(=O)NCCOCc3cn(CCOCCOCCNc4cccc5c4C(=O)N(C4CCC(=O)NC4=O)C5=O)nn3)cc2)nc1N` (stereo not drawn) has an Activity (HL-60 [9]) of 26.84%, an Activity (HL-60 [10]) of 34.38% and a DC50 [11] of 61 nM. It also gave an IC50 (HL-60 [5]) greater than 1000 nM.
With `O=C1CCC(N2C(=O)c3ccc(N4CCC(CN5CCC(CCN6CCC(NC(=O)c7n[nH]cc7NC(=O)c7c(Cl)cccc7Cl)CC6)CC5)CC4)cc3C2=O)C(=O)N1` (stereo not drawn) the Emax [4] was 43.5% and the DC50 [1] was greater than 100 nM.
Work on `O=C1CCC(N2C(=O)c3ccc(N4CC(N5CCC(NC(=O)c6n[nH]cc6NC(=O)c6c(Cl)cccc6Cl)CC5)C4)cc3C2=O)C(=O)N1` (stereo not drawn) yielded an Emax [4] of 72.8%, a DC50 [1] of 26.1 nM and an IC50 (HL-60 [5]) of 17.8 nM.
`O=C1CCC(N2C(=O)c3ccc(N4CC(C(=O)N5CCC(NC(=O)c6n[nH]cc6NC(=O)c6c(Cl)cccc6Cl)CC5)C4)cc3C2=O)C(=O)N1` (stereo not drawn) gave an Emax [4] of 34.2% and a DC50 [1] greater than 100 nM.
`O=C(NC1CCNCC1)c1n[nH]cc1NC(=O)c1c(Cl)cccc1Cl` [AT-7519] showed an IC50 (HL-60 [5]) of 135 nM.
